Consider one compound from US20240277658A1, “NLRP3 ACTIVATORS FOR USE IN THE TREATMENT OF INFECTIOUS DISEASES OR CANCER BY ACTIVATING NLRP3 INFLAMMASOME” (ALBERT-LUDWIGS-UNIVERSITÄT FREIBURG, priority 2020, published 2024).

This test deals with T1, NLRP3 inflammasome (Mus musculus, UniProt Q8R4B8).
T1 construct: endogenous in cells; host or cells: primary mouse bone marrow-derived dendritic cells (BMDCs), LPS-primed
The test can be described thus: Inflammasome stimulation of BMDCs after pre-incubation with inhibitors (MCC950, KCl, ebselen, cytochalasin D). The class given is cell-based. As to the method: For canonical inflammasome activation BMDCs after 7-9 days of differentiation were harvested and counted with a Neubauer Chamber (Hecht Assistant) and the concentration was set to 1 Mio cells ml^−1. 100 μl cell suspension per well were seeded in 96-well plates. The cells were primed with 50 ng ml^−1 E. coli K12 ultra-pure LPS for 3 hours and subsequently treated with canonical inflammasome activators or experimental compounds for 3 hours if not indicated differently (incubation time FIG. 4D, 5, 7, 8, 11, 13-18: 3 h, FIG. 12: 4 h). Concentrations of the stimuli were as follows if not indicated differently: 5 μM nigericin, 100 μM imiquimod (also known as R837), 100 μM CL097, 100 μM R848, […] poly(dA:dT), 300 μg ml^−1 MSU. If an inhibitor was used before stimuli treatment, the inhibitor was added after 2.5 hours of priming and it was incubated for 30 minutes before inflammasome activation. […]
All inflammasome stimulations were performed in three technical replicates for each condition. Lytic cell death was determined via LDH release (see FIGS. 8, 13-16 and 18), cytokines quantified in cell-free supernatants via ELISA (see FIGS. 4D, 7-9, 11-19) and cell lysates and supernatants analyzed via immunoblotting (see FIGS. 5A and 5B) as previously described in detail (Gross, Olaf, 2012 “Measuring the inflammasome”, Methods in molecular biology, Clifton, N.J., 844, pp. 199-222. Schneider, Katharina S.; Thomas, Christina J.; Groß, Olaf, 2013, “Inflammasome activation and inhibition in primary murine bone marrow-derived cells, and assays for IL-1α, IL-1β, and caspase-1”, Methods in molecular biology, Clifton, N.J., 1040, pp. 117-135).

T1 sequence (Q8R4B8 whole entry): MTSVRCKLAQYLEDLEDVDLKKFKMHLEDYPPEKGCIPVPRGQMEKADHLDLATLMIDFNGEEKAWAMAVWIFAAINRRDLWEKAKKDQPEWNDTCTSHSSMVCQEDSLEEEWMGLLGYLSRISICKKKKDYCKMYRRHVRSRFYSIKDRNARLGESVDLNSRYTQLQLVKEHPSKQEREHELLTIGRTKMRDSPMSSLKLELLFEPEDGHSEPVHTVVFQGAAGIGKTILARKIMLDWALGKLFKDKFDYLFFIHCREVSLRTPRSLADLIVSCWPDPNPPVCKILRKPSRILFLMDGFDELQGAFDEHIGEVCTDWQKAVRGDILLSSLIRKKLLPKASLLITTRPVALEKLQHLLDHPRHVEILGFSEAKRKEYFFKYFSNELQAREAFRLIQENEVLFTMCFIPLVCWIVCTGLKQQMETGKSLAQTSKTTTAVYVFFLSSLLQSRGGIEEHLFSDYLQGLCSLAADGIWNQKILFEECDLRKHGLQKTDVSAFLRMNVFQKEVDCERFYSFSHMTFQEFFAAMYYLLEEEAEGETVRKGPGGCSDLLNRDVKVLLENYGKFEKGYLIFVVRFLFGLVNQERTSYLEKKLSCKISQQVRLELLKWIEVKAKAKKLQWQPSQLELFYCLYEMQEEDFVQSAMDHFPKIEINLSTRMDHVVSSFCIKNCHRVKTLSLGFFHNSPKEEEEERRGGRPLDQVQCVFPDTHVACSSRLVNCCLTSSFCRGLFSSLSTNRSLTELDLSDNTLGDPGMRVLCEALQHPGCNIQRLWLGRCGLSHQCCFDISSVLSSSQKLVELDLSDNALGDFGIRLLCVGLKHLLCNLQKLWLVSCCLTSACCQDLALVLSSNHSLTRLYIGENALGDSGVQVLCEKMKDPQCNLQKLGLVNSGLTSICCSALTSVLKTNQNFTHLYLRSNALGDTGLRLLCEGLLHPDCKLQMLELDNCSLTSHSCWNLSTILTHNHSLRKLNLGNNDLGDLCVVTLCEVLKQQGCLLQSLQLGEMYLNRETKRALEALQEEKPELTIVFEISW

Regarding `O=C(Nc1ccccc1)Nc1ccc2ncccc2c1` [EN22, 1-phenyl-3-(quinolin-6-yl)urea], the “dependence of NLRP3 inflammasome activation on potassium efflux from the cell” value (50 mM extracellular KCl, FIGS. 11 and 17) is “independently of potassium efflux”. The “effect of the endocytosis inhibitor cytochalasin D on NLRP3 activation” value (LPS-primed wild-type BMDCs, FIG. 12) is given as “has no effect”. Besides, the “effect of the NLRP3-specific inhibitor MCC950 on inflammasome activation by the compound” value (wild-type BMDCs, compound 50 μM, FIG. 8) was “completely suppresses”.
